Values quoted from earlier work, collected in patent US20210319872A1, “DRUG AND DEVICE COMBINATION PRODUCTS WITH IMPROVED SAFETY AND EFFICACY PROFILES” (priority 2016, published 2021).
Read-outs that look alike come from different tables or passages of the source.

SMILES: CC(C)(C)NCC(O)COc1cccc2c1CCC(=O)N2 (stereo not drawn) [Carteolol (Cartrol)]
- Asthenia (in vivo): Neurologic: Asthenia (7%.), Dizziness (4% to 15%.), Headache
- Burning sensation in eye (in vivo): Ophthalmic: Blurred vision, Burning sensation in eye (25%),
- Conjunctival edema (in vivo): Conjunctival edema (25%), Conjunctival hyperemia (25%),
- Conjunctival hyperemia (in vivo): Conjunctival edema (25%), Conjunctival hyperemia (25%),
- Dizziness (in vivo): Neurologic: Asthenia (7%.), Dizziness (4% to 15%.), Headache
- Epiphora (in vivo): Epiphora (25%), Eye irritation (25%)
- Eye irritation (in vivo): Epiphora (25%), Eye irritation (25%)
- Headache (in vivo): (4% to 17%.), Insomnia (2% to 12%.)
- Insomnia (in vivo): (4% to 17%.), Insomnia (2% to 12%.)

SMILES: C[C@H](O)[C@H](O)[C@H]1CNc2[nH]c(N)nc(=O)c2N1.Cl.Cl [Kuvan]
- Cough (in vivo): Respiratory: Cough (4% or more), Nasal congestion (4% or more),
- Diarrhea (in vivo): Gastrointestinal: Diarrhea (4% or more), Vomiting (4% or more)
- Headache (in vivo): Neurologic: Headache (4% or greater)
- Nasal congestion (in vivo): Respiratory: Cough (4% or more), Nasal congestion (4% or more),
- Nasal discharge (in vivo): Nasal discharge (4% or more), Pain in throat (4% or more), Upper
- Pain in throat (in vivo): Nasal discharge (4% or more), Pain in throat (4% or more), Upper
- Serious side effect, Cardiovascular (in vivo): Cardiovascular: Myocardial infarction
- Serious side effect, Gastrointestinal (in vivo): Gastrointestinal: Gastrointestinal hemorrhage
- Serious side effect, Hematologic (in vivo): Hematologic: Hemorrhage, Post-procedural
- Serious side effect, Neurologic (in vivo): Neurologic: Seizure
- Serious side effect, Respiratory (in vivo): Respiratory: Respiratory failure
- Upper respiratory infection (in vivo): respiratory infection (17%)
- Vomiting (in vivo): Gastrointestinal: Diarrhea (4% or more), Vomiting (4% or more)

SMILES: Cc1ccc(-c2nc3ccc(C)cn3c2CC(=O)N(C)C)cc1 [Ambien (zolpidem)]
- Allergic reaction (in vivo): Immunologic: Allergic reaction (4%)
- Anaphylaxis (in vivo): Immunologic: Anaphylaxis (rare)
- Angioedema (in vivo): Other: Angioedema (rare)
- Chest pain (in vivo): Cardiovascular: Chest pain (1%), Tachycardia (0.1% to 1%)
- Diarrhea (in vivo): Gastrointestinal: Diarrhea (1% to 3%), Nausea (1% to 7%)
- Dizziness (in vivo): Neurologic: Dizziness (1% to 23.5%), Drugged state (3%),
- Drugged state (in vivo): Neurologic: Dizziness (1% to 23.5%), Drugged state (3%),
- Fatigue (in vivo): Other: Fatigue (0.1% to 3%)
- Headache (in vivo): Headache (1% to 19%), Somnolence (2% to 15%)
- Nausea (in vivo): Gastrointestinal: Diarrhea (1% to 3%), Nausea (1% to 7%)
- Serious side effect, Neurologic (in vivo): Neurologic: Hepatic encephalopathy
- Somnolence (in vivo): Headache (1% to 19%), Somnolence (2% to 15%)
- Tachycardia (in vivo): Cardiovascular: Chest pain (1%), Tachycardia (0.1% to 1%)
- Visual disturbance (in vivo): Ophthalmic: Visual disturbance (3%)

SMILES: CCCCC(=O)N(Cc1ccc(-c2ccccc2-c2nnn[nH]2)cc1)[C@H](C(=O)O)C(C)C [Valsartan (Diovan)]
- Common side effects, listed without incidence (in vivo): Respiratory: Cough
- Dizziness (in vivo): Neurologic: Dizziness (2% to 17%), Headache (greater than 1%)
- Headache (in vivo): Neurologic: Dizziness (2% to 17%), Headache (greater than 1%)
- Hypotension (in vivo): Cardiovascular: Hypotension (5.5% to 6.9%)
- Serum blood urea nitrogen raised (in vivo): Renal: Serum blood urea nitrogen raised (heart failure, 16.6%),

SMILES: CNCCC=C1c2ccccc2CCc2ccccc21 [Nortriptyline (Pamelor)]
- Common side effects, listed without incidence (in vivo): Gastrointestinal: Constipation

SMILES: CC#CCn1c(N2CCC[C@@H](N)C2)nc2c1c(=O)n(Cc1nc(C)c3ccccc3n1)c(=O)n2C [Tradjenta]
- Hypoglycemia (combination therapy): combination therapy, 22.9%)
- Nasopharyngitis (in vivo): Respiratory: Nasopharyngitis (7%)
- Hypoglycemia (monotherapy): Endocrine metabolic: Hypoglycemia (monotherapy, 6.6%;

SMILES: NCC1(CC(=O)O)CCCCC1 [Gabapentin (Neurontin)]
- Ataxia (in vivo): Neurologic: Ataxia (Adult, 3%; adult and adolescent, 13%),
- Disorder of form of thought (in vivo): Psychiatric: Disorder of form of thought (Pediatric, 1.7%),
- Disturbance in thinking (in vivo): Disturbance in thinking (2% to 3%), Hostile behavior (Pediatric,
- Fatigue (in vivo): Other: Fatigue (3% to 11%), Fever (Pediatric, 10%)
- Fever (in vivo): Other: Fatigue (3% to 11%), Fever (Pediatric, 10%)
- Hostile behavior (in vivo): 5.2%), Hyperactive behavior (Pediatric, 4.7%), Mood swings
- Hyperactive behavior (in vivo): 5.2%), Hyperactive behavior (Pediatric, 4.7%), Mood swings
- Mood swings (in vivo): (Pediatric, 6%), Suicidal thoughts
- Nausea (in vivo): Gastrointestinal: Nausea (greater than 1%), Vomiting (3.3%)
- Nystagmus (in vivo): Nystagmus (Adult and adolescent, 8%)
- Peripheral edema (in vivo): Cardiovascular: Peripheral edema (1.7% to 8.3%)
- Serious side effect, Dermatologic (in vivo): Dermatologic: Stevens-Johnson syndrome
- Serious side effect, Immunologic (in vivo): Immunologic: Drug hypersensitivity syndrome
- Serious side effect, Psychiatric (in vivo): (Pediatric, 6%), Suicidal thoughts
- Viral disease (in vivo): Immunologic: Viral disease (10.9%)
- Vomiting (in vivo): Gastrointestinal: Nausea (greater than 1%), Vomiting (3.3%)

SMILES: O=C(O)C(O)C(O)C(=O)O.c1cnc2cc3c(cc2n1)[C@@H]1CNC[C@H]3C1 [Chantix]
- Acquired night blindness (in vivo): Ophthalmic: Acquired night blindness (rare), Blurred vision
- Angina (in vivo): Cardiovascular: Angina (2.3%), Myocardial infarction (2%)
- Constipation (in vivo): Gastrointestinal: Constipation (5% to 8%), Flatulence (6% to 9%),
- Depression (in vivo): Psychiatric: Abnormal behavior, Depression (3.5% to 11%),
- Dream disorder (in vivo): Neurologic: Dream disorder (9% to 13%), Headache (11% to 19%),
- Flatulence (in vivo): Gastrointestinal: Constipation (5% to 8%), Flatulence (6% to 9%),
- Headache (in vivo): Neurologic: Dream disorder (9% to 13%), Headache (11% to 19%),
- Hostile behavior (in vivo): Hostile behavior (2%), Mood disorder (2.3%), Suicidal behavior,
- Insomnia (in vivo): Insomnia (10% to 19%)
- Mood disorder (in vivo): Hostile behavior (2%), Mood disorder (2.3%), Suicidal behavior,
- Myocardial infarction (in vivo): Cardiovascular: Angina (2.3%), Myocardial infarction (2%)
- Nausea (in vivo): Nausea (30%), Vomiting (5% to 11%)
- Retinal vascular disorder (in vivo): (infrequent), Retinal vascular disorder (rare), Subcapsular cataract
- Serious side effect, Neurologic (in vivo): Neurologic: Cerebrovascular accident
- Serious side effect, Psychiatric (in vivo): Psychiatric: Abnormal behavior, Depression (3.5% to 11%),
- Subcapsular cataract (in vivo): (rare), Transient blindness (rare), Visual disturbance (infrequent)
- Suicidal behavior, and/or ideation (in vivo): and/or ideation (6% to 11%)
- Transient blindness (in vivo): (rare), Transient blindness (rare), Visual disturbance (infrequent)
- Visual disturbance (in vivo): (rare), Transient blindness (rare), Visual disturbance (infrequent)
- Vomiting (in vivo): Nausea (30%), Vomiting (5% to 11%)

SMILES: CCCCNc1cc(C(=O)O)cc(S(N)(=O)=O)c1Oc1ccccc1 [Bumetanide (Bumex)]
- Azotemia (incidence) (in vivo): Renal: Azotemia (10.6%)
- Cramp (incidence) (in vivo): Musculoskeletal: Cramp (1.1%)
- Dizziness (incidence) (in vivo): Neurologic: Dizziness (1.1%), Headache (0.6%)
- Encephalopathy (incidence) (in vivo): Neurologic: Encephalopathy (0.6%)
- Headache (incidence) (in vivo): Neurologic: Dizziness (1.1%), Headache (0.6%)
- Hyperuricemia (incidence) (in vivo): Endocrine metabolic: Hyperuricemia (18.4%), Hypochloremia
- Hypochloremia (incidence) (in vivo): (14.9%), Hypokalemia (14.7%)
- Hypokalemia (incidence) (in vivo): (14.9%), Hypokalemia (14.7%)
- Hypotension (incidence) (in vivo): Cardiovascular: Hypotension (0.8%)
- Nausea (incidence) (in vivo): Gastrointestinal: Nausea (0.6%)
- Serious side effect listed (incidence not given) (in vivo): Dermatologic: Stevens-Johnson syndrome
- Thrombocytopenia (incidence) (in vivo): Hematologic: Thrombocytopenia (0.2%)
